Measurements reported in ChEMBL document CHEMBL4400537, “Virtual Screening Identifies Irreversible FMS-like Tyrosine Kinase 3 Inhibitors with Activity toward Resistance-Conferring Mutations” (J Med Chem, 2019).
Active and inactive are the calls of the source. No cut-off for these calls is given here.

Key:
MV4-11 [1] = assay: cells; conditions: Homo sapiens, MV4-11, 72 h
MV4-11 [2] = assay: Cytotoxicity in human MV4-11 cells assessed as induction of cell death at 10 uM incubated for 72 hrs by CellTiter-Blue assay; format: functional
[3] = target: Glycogen synthase kinase-3 beta (Homo sapiens) (UniProt P49841); assay: Inhibition of human N-terminal His-tagged GSK3beta expressed in baculovirus expression system assessed as residual activity at 100 nM relative to control
Sequence of Glycogen synthase kinase-3 beta (Homo sapiens) (P49841 whole entry, looked up): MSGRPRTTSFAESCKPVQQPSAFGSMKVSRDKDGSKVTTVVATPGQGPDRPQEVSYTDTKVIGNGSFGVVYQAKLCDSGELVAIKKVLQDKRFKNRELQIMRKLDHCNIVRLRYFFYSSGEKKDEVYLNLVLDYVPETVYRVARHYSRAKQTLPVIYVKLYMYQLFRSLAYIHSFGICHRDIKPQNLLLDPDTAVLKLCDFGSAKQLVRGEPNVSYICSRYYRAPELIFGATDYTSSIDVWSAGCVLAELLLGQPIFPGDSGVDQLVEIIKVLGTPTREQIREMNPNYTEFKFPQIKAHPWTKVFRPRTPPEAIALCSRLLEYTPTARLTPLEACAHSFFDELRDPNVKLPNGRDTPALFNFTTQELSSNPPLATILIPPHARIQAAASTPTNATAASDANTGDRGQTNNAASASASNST

[4] = target: Receptor-type tyrosine-protein kinase FLT3 (Homo sapiens, UniProt P36888, D835H)
THP-1 = assay: cells; conditions: Homo sapiens, THP-1, 72 h
[5] = target: Receptor-type tyrosine-protein kinase FLT3 (Homo sapiens, UniProt P36888, D835Y); assay: Irreversible inhibition of recombinant human FLT3 D835Y mutant (571 to 993 residues) expressed in baculovirus expression system preincubated for 5 to 30 mins followed by myelobasic protein addition measured after 120 mins in presence of ATP by ADP-Glo assay
[6] = target: Receptor-type tyrosine-protein kinase FLT3 (Homo sapiens, UniProt P36888, ITD)
[7] = target: Mitogen-activated protein kinase 1 (Homo sapiens) (UniProt P28482); assay: Inhibition of human N-terminal GST-tagged ERK2 (14 to 429 residues) expressed in baculovirus expression system assessed as residual activity at 100 nM relative to control
Sequence of Mitogen-activated protein kinase 1 (Homo sapiens) (P28482 whole entry, the tested form may be a part): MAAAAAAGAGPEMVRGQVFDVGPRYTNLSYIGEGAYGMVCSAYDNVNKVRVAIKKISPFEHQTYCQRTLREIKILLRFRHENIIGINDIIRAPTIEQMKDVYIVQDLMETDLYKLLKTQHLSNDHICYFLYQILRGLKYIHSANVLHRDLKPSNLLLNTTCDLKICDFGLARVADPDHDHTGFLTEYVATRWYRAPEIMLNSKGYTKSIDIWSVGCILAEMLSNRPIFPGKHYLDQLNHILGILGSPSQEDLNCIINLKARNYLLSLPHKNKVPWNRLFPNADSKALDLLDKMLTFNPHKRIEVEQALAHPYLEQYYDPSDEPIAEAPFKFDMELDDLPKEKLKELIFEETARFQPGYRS

[8] = target: Tyrosine-protein kinase Lyn (Homo sapiens) (UniProt P07948); assay: Inhibition of full length human N-terminal 6His-tagged LYN expressed in baculovirus expression system at 100 nM relative to control
Sequence of Tyrosine-protein kinase Lyn (Homo sapiens) (P07948 2-512 limits assumed): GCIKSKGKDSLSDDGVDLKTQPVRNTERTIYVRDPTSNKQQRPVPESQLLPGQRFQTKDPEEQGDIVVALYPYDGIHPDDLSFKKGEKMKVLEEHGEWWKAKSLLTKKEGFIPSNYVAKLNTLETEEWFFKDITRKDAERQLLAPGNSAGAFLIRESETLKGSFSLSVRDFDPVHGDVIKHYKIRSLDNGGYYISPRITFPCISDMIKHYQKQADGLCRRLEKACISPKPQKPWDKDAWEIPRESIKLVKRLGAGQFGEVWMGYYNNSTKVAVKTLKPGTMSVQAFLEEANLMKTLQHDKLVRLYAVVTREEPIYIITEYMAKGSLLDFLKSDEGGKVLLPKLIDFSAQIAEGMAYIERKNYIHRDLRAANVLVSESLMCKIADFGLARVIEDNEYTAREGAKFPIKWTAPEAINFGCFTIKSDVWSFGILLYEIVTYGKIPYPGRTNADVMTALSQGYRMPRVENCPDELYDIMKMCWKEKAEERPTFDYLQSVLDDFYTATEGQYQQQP

[9] = target: Interleukin-1 receptor-associated kinase 1 (Homo sapiens) (UniProt P51617); assay: Inhibition of full length human N-terminal 6His-tagged IRAK1 expressed in baculovirus expression system at 100 nM relative to control
[10] = target: Tyrosine-protein kinase Lck (Homo sapiens) (UniProt P06239); assay: Inhibition of full length human N-terminal 6His-tagged LCK expressed in baculovirus expression system at 100 nM relative to control
Sequence of Tyrosine-protein kinase Lck (Homo sapiens) (P06239 2-509 limits assumed): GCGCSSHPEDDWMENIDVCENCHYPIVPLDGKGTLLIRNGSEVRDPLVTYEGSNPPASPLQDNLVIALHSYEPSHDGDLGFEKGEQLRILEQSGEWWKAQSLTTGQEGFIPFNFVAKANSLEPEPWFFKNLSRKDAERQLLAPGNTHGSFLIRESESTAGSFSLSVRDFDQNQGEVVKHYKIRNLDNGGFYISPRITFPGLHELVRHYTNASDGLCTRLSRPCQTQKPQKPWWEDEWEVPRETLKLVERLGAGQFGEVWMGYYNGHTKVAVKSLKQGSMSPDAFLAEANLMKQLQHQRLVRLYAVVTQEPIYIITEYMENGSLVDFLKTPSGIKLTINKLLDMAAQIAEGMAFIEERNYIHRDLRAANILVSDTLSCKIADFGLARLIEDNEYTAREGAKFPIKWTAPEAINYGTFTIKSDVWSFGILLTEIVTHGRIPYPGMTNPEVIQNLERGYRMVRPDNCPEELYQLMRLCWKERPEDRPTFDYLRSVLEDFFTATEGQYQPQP

[11] = target: Mitogen-activated protein kinase 3 (Homo sapiens) (UniProt P27361); assay: Inhibition of full length N-terminal GST-tagged human ERK1 expressed in baculovirus expression system assessed as residual activity at 100 nM relative to control
[12] = target: Platelet-derived growth factor receptor beta (Homo sapiens) (UniProt P09619); assay: Inhibition of full length human N-terminal GST-tagged PDGFRbeta expressed in baculovirus expression system at 100 nM relative to control
[13] = target: T1, Receptor-type tyrosine-protein kinase FLT3 (Homo sapiens, UniProt P36888)
[14] = test system: T2, Receptor-type tyrosine-protein kinase FLT3 (Homo sapiens), P36888 [D835Y]; assay: Inhibition of recombinant human FLT3 D835Y mutant (571 to 993 residues) expressed in baculovirus expression system at 100 nM preincubated for 30 mins in presence of 1000 fold glutathione followed by myelobasic protein addition and measured after 120 mins relative to control
T2 sequence (whole entry): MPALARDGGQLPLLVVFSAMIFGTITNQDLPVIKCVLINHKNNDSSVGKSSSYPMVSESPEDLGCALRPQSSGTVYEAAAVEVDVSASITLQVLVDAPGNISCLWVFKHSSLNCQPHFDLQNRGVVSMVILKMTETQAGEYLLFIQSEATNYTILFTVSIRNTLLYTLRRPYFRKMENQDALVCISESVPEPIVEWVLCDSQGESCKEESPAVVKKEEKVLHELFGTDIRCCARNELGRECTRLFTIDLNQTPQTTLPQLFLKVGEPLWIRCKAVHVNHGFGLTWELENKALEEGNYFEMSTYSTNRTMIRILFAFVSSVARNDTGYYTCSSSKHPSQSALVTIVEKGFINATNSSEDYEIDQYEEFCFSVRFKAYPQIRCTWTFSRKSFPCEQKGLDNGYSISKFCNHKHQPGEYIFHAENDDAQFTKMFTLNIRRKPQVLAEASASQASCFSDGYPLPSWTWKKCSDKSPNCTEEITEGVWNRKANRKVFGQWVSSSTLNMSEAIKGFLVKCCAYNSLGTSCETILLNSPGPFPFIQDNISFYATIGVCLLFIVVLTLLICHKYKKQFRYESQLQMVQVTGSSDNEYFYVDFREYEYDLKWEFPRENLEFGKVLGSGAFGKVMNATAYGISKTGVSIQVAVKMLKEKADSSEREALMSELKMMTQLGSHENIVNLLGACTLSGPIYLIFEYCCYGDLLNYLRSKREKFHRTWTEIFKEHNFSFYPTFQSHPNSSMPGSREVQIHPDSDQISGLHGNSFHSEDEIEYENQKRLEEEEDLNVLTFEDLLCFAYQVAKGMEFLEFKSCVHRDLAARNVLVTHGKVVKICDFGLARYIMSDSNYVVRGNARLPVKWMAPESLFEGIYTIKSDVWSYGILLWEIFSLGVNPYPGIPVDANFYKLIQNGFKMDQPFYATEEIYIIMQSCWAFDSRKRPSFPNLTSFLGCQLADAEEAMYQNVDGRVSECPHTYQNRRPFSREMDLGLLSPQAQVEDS

[15] = target: Proto-oncogene tyrosine-protein kinase receptor Ret (Homo sapiens) (UniProt P07949); assay: Inhibition of full length human N-terminal GST-tagged RET expressed in baculovirus expression system at 100 nM relative to control
Sequence of Proto-oncogene tyrosine-protein kinase receptor Ret (Homo sapiens) (P07949 whole entry): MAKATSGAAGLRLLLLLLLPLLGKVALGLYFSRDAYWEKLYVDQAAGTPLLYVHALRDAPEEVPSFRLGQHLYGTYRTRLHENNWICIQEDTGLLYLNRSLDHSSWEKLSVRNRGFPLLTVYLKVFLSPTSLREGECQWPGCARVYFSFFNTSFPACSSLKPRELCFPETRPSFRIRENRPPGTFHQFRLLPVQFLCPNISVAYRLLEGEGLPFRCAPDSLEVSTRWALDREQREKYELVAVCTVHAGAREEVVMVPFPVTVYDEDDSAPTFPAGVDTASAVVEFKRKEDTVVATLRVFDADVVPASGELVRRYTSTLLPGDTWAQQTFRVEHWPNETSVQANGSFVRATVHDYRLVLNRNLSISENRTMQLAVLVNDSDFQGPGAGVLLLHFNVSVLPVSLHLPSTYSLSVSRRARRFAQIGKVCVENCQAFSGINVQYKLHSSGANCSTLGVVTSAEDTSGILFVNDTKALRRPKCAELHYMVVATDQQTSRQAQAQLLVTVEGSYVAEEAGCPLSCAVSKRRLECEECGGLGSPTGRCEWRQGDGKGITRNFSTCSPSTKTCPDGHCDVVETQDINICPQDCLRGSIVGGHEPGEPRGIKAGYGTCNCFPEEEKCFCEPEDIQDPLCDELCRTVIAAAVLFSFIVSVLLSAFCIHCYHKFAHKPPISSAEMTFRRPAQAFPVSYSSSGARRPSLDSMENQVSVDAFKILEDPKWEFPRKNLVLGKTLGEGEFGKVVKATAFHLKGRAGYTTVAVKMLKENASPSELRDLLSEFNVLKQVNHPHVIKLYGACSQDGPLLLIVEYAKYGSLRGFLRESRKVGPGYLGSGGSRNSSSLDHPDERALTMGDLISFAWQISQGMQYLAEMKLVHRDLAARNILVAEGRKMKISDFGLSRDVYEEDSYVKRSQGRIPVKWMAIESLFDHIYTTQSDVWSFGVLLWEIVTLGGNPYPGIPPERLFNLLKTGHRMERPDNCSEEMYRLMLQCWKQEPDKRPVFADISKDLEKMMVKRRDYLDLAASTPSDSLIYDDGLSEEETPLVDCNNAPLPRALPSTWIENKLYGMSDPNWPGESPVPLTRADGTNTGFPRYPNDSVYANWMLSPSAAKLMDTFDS

[16] = target: Mast/stem cell growth factor receptor Kit (Homo sapiens) (UniProt P10721); assay: Inhibition of human N-terminal GST-tagged c-KIT expressed in baculovirus expression system at 100 nM relative to control
Sequence of Mast/stem cell growth factor receptor Kit (Homo sapiens) (P10721 whole entry): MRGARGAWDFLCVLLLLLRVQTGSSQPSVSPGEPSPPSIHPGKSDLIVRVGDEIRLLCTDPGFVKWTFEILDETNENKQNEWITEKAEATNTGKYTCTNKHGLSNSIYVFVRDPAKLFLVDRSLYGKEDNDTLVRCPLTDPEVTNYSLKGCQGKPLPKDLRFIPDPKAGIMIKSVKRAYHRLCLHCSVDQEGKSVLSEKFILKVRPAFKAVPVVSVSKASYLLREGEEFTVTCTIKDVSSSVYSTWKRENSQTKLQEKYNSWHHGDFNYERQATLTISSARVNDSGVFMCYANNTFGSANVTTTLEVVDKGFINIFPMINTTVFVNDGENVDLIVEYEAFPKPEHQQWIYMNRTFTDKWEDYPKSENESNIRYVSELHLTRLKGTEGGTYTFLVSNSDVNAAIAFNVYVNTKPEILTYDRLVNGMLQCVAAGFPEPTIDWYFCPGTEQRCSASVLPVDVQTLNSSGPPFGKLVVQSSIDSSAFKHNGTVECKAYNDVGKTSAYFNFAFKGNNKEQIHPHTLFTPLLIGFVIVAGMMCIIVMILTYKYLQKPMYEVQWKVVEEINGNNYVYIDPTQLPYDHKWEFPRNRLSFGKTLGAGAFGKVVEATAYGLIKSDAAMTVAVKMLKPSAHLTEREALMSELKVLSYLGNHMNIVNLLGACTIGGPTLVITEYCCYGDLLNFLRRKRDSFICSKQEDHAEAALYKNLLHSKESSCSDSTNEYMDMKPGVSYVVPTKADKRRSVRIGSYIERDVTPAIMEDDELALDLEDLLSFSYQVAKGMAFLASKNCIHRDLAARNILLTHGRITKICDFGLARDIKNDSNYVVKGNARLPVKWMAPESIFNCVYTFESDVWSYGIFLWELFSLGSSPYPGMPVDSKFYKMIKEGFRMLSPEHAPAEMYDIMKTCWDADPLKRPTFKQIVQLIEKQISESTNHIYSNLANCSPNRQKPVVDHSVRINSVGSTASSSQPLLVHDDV

[17] = target: Glycogen synthase kinase-3 alpha (Homo sapiens) (UniProt P49840); assay: Inhibition of human N-terminal His-tagged GSK3alpha expressed in baculovirus expression system assessed as residual activity at 100 nM relative to control
[18] = test system: T2, Receptor-type tyrosine-protein kinase FLT3 (Homo sapiens), P36888 [D835Y]; assay: Inhibition of recombinant human FLT3 D835Y mutant (571 to 993 residues) expressed in baculovirus expression system at 100 nM preincubated for 24 hrs in presence of 1000 fold glutathione followed by myelobasic protein addition and measured after 120 mins relative to control
[19] = test system: T2, Receptor-type tyrosine-protein kinase FLT3 (Homo sapiens), P36888 [D835Y]; assay: Inhibition of covalent binding of 100 uM (Z)-N-(2-(2-(4-(2,8-Diethyl-5,5-difluoro-1,3,7,9-tetramethyl-5H-4lambda4,5lambda4-dipyrrolo[1,2-c:2',1'-f ][1,3,2]diazaborinin-10-yl)phenoxy)-acetamido)ethyl)-2,4-dimethyl-5-((2-oxo-5-(vinylsulfon-amido)-indolin-3-ylidene)methyl)-1H-pyrrole-3-carboxamide to recombinant human FLT3 D835Y mutant (571 to 993 residues) expressed in baculovirus expression system at 100 uM by Western blot analysis
MOLM-14 = assay: cells; conditions: Homo sapiens, MOLM-14, 72 h
[20] = test system: T2, Receptor-type tyrosine-protein kinase FLT3 (Homo sapiens), P36888 [D835Y]; assay: Inhibition of human FLT3 D835Y mutant expressed in baculovirus expression system at 100 nM relative to control
[21] = target: Tyrosine-protein kinase receptor UFO (Homo sapiens) (UniProt P30530); assay: Inhibition of full length human N-terminal 6His-tagged AXL expressed in baculovirus expression system at 100 nM relative to control
[22] = target: Platelet-derived growth factor receptor alpha (Homo sapiens) (UniProt P16234); assay: Inhibition of full length human N-terminal 6His-tagged PDGFRalpha expressed in baculovirus expression system at 100 nM relative to control
Sequence of Platelet-derived growth factor receptor alpha (Homo sapiens) (P16234 whole entry): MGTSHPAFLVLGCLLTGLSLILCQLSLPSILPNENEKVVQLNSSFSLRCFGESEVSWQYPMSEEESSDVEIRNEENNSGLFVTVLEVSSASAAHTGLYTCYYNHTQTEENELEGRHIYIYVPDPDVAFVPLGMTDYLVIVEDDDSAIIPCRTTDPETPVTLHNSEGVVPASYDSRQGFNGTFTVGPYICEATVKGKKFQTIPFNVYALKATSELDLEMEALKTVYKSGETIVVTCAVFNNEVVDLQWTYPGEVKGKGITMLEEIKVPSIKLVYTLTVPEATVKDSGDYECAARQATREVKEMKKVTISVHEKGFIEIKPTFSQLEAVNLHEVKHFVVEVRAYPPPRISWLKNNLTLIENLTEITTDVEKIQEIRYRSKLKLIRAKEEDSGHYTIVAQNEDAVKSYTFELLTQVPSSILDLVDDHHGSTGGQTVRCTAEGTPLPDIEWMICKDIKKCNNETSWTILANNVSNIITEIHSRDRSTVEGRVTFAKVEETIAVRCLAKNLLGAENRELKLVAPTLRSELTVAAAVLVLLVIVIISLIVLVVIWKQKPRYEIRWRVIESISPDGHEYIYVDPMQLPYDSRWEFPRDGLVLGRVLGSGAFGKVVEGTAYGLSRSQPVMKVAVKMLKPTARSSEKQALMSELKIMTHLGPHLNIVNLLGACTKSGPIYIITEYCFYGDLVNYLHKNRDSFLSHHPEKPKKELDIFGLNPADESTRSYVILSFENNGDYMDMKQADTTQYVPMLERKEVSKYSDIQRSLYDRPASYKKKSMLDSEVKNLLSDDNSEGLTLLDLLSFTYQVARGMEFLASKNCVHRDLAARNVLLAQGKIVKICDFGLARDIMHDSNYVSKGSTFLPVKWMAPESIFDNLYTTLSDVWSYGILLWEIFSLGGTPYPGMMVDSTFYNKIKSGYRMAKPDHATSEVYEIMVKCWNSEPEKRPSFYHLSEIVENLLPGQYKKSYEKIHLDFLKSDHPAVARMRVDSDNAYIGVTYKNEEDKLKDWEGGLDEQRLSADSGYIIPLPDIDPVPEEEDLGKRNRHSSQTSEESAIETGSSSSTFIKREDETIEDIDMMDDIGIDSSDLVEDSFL

[23] = target: T1, Receptor-type tyrosine-protein kinase FLT3; assay: Binding affinity to auto-inhibited form of wild type human N-terminal GST-tagged FLT3 expressed in baculovirus expression
[24] = target: Receptor-type tyrosine-protein kinase FLT3 (Homo sapiens, UniProt P36888, D835V/ITD)
[25] = target: Receptor-type tyrosine-protein kinase FLT3 (Homo sapiens) (UniProt P36888); assay: Inhibition of human N-terminal GST-tagged FLT3 expressed in baculovirus expression system at 100 nM relative to control
Jurkat = assay: cells; conditions: Homo sapiens, 72 h

**Q.** Which results are given for `Cc1cc(Nc2ccnc(Nc3ccccc3)n2)n[nH]1`?
**A.** IC50 (MV4-11 [1]): > 1 nM; Activity (MV4-11 [2]): 89%

**Q.** With `C=CS(=O)(=O)Nc1ccc2c(c1)/C(=C/c1[nH]c(C)c(C(=O)NCCN(CC)CC)c1C)C(=O)N2` as the compound, how does the inhibition [3] read?
**A.** inactive

**Q.** What about the Kd [4] of the same compound?
**A.** 1.3 nM

**Q.** What about the IC50 (MV4-11 [1]) of the same compound?
**A.** 6 nM

**Q.** What about the IC50 (THP-1) of the same compound?
**A.** > 1000 nM

**Q.** What about the Ki [5] of the same compound?
**A.** 1.98 nM

**Q.** What about the Kd [6] of the same compound?
**A.** 5.8 nM

**Q.** And the inhibition [7]?
**A.** inactive

**Q.** And the inhibition [8]?
**A.** 81 to 93%

**Q.** And the inhibition [9]?
**A.** 81 to 93%

**Q.** What about the inhibition [10] of the same compound?
**A.** 81 to 93%

**Q.** And the inhibition [11]?
**A.** inactive

**Q.** And the inhibition [12]?
**A.** 14%

**Q.** And the Kd [13]?
**A.** 2.3 nM

**Q.** What about the inhibition [14] of the same compound?
**A.** 68%

**Q.** What about the inhibition [15] of the same compound?
**A.** 96%

**Q.** What about the inhibition [16] of the same compound?
**A.** 34%

**Q.** What about the inhibition [17] of the same compound?
**A.** inactive

**Q.** What about the inhibition [18] of the same compound?
**A.** 37%

**Q.** And the inhibition [19]?
**A.** 28%

**Q.** What about the IC50 (MOLM-14) of the same compound?
**A.** 7.8 nM

**Q.** And the inhibition [20]?
**A.** 99%

**Q.** What about the inhibition [21] of the same compound?
**A.** 81 to 93%

**Q.** And the inhibition [22]?
**A.** 24%

**Q.** What about the Kd [23] of the same compound?
**A.** 65 nM

**Q.** What about the Kd [24] of the same compound?
**A.** 0.83 nM

**Q.** And the inhibition [25]?
**A.** 95%

**Q.** And the IC50 (Jurkat)?
**A.** > 1000 nM
